Data from the supplement of paper PMC10307832.

What was measured:
Assay in all cases: relative viability (nuclei count vs DMSO), 5 days (fraction); higher = more cells survive
[1] = compound: CN(c1ncccc1CNc1nc(Nc2ccc3c(c2)CC(=O)N3)ncc1C(F)(F)F)S(C)(=O)=O + CCNC(=O)c1noc(-c2cc(C(C)C)c(O)cc2O)c1-c1ccc(CN2CCOCC2)cc1 [Luminespib] (partner 0.01 µM)
Procedure, shortened: (§1)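 Lung cancer cell lines in 1536-well plates got either a single drug or a fixed anchor-drug dose together with five library-drug doses (not always all listed) in √10 steps, by pin tool, on the day after seeding. Nuclei were counted after 5 days, and relative viability is the treated-to-vehicle ratio of nuclei counts. Values are medians of duplicate plates.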

[2] = compound: CN(c1ncccc1CNc1nc(Nc2ccc3c(c2)CC(=O)N3)ncc1C(F)(F)F)S(C)(=O)=O + Cc1cc(Nc2cc(N3CCN(C)CC3)nc(Sc3ccc(NC(=O)C4CC4)cc3)n2)n[nH]1 [Tozasertib] (partner 0.1 µM)
Procedure, shortened: as §1

[3] = compound: CN(c1ncccc1CNc1nc(Nc2ccc3c(c2)CC(=O)N3)ncc1C(F)(F)F)S(C)(=O)=O + Cc1nc(NC(=O)N2CCC[C@H]2C(N)=O)sc1-c1ccnc(C(C)(C)C(F)(F)F)c1 [Alpelisib] (partner 2 µM)
Procedure, shortened: as §1

[4] = compound: CN(c1ncccc1CNc1nc(Nc2ccc3c(c2)CC(=O)N3)ncc1C(F)(F)F)S(C)(=O)=O + Cc1nc(Nc2ncc(C(=O)Nc3c(C)cccc3Cl)s2)cc(N2CCN(CCO)CC2)n1 [Dasatinib] (partner 0.075 µM)
Procedure, shortened: as §1

Work on PC-3 [JPC-3] yielded a relative viability ([1]; first compound 0.01 µM) of 0.719, a relative viability ([1]; first compound 0.03162 µM) of 0.788 and a relative viability ([1]; first compound 0.1 µM) of 0.792. It also gave a relative viability ([1]; first compound 0.3162 µM) of 0.665, a relative viability ([1]; first compound 1 µM) of 0.636 and a relative viability ([2]; first compound 0.01 µM) of 0.903. For the same cell line, the relative viability ([2]; first compound 0.03162 µM) was 0.907, the relative viability ([2]; first compound 0.1 µM) was 0.913 and the relative viability ([2]; first compound 0.3162 µM) was 0.847. For the same cell line, the relative viability ([2]; first compound 1 µM) was 0.832, the relative viability ([3]; first compound 0.01 µM) was 0.993 and the relative viability ([3]; first compound 0.03162 µM) was 1.14. It also gave a relative viability ([3]; first compound 0.1 µM) of 0.941, a relative viability ([3]; first compound 0.3162 µM) of 1.02 and a relative viability ([3]; first compound 1 µM) of 0.952. It also gave a relative viability ([4]; first compound 0.01 µM) of 0.988, a relative viability ([4]; first compound 0.03162 µM) of 0.949 and a relative viability ([4]; first compound 0.1 µM) of 0.892. It also gave a relative viability ([4]; first compound 0.3162 µM) of 0.911 and a relative viability ([4]; first compound 1 µM) of 0.953.
For PC-14, the relative viability ([1]; first compound 0.01 µM) was 0.233, the relative viability ([1]; first compound 0.03162 µM) was 0.15 and the relative viability ([1]; first compound 0.1 µM) was 0.192. It also gave a relative viability ([1]; first compound 0.3162 µM) of 0.176, a relative viability ([1]; first compound 1 µM) of 0.236 and a relative viability ([2]; first compound 0.01 µM) of 0.531. It also gave a relative viability ([2]; first compound 0.03162 µM) of 0.705, a relative viability ([2]; first compound 0.1 µM) of 0.54 and a relative viability ([2]; first compound 0.3162 µM) of 0.59. The relative viability ([2]; first compound 1 µM) was 0.52, the relative viability ([3]; first compound 0.01 µM) was 1.02 and the relative viability ([3]; first compound 0.03162 µM) was 1.07. The relative viability ([3]; first compound 0.1 µM) was 0.982, the relative viability ([3]; first compound 0.3162 µM) was 0.951 and the relative viability ([3]; first compound 1 µM) was 0.869. The relative viability ([4]; first compound 0.01 µM) was 0.211, the relative viability ([4]; first compound 0.03162 µM) was 0.191 and the relative viability ([4]; first compound 0.1 µM) was 0.14. For the same cell line, the relative viability ([4]; first compound 0.3162 µM) was 0.211 and the relative viability ([4]; first compound 1 µM) was 0.158.
RERF-LC-KJ gave a relative viability ([1]; first compound 0.01 µM) of 1.16, a relative viability ([1]; first compound 0.03162 µM) of 1.34 and a relative viability ([1]; first compound 0.1 µM) of 1.17. The relative viability ([1]; first compound 0.3162 µM) was 1.28, the relative viability ([1]; first compound 1 µM) was 1.19 and the relative viability ([2]; first compound 0.01 µM) was 0.468. For the same cell line, the relative viability ([2]; first compound 0.03162 µM) was 0.466, the relative viability ([2]; first compound 0.1 µM) was 0.467 and the relative viability ([2]; first compound 0.3162 µM) was 0.514. The relative viability ([2]; first compound 1 µM) was 0.348, the relative viability ([3]; first compound 0.01 µM) was 0.838 and the relative viability ([3]; first compound 0.03162 µM) was 0.955. It also gave a relative viability ([3]; first compound 0.1 µM) of 0.813, a relative viability ([3]; first compound 0.3162 µM) of 0.765 and a relative viability ([3]; first compound 1 µM) of 0.825. For the same cell line, the relative viability ([4]; first compound 0.01 µM) was 0.767, the relative viability ([4]; first compound 0.03162 µM) was 0.809 and the relative viability ([4]; first compound 0.1 µM) was 0.708. The relative viability ([4]; first compound 0.3162 µM) was 0.723 and the relative viability ([4]; first compound 1 µM) was 0.743.
Cell Line SK-LU-1 has a relative viability ([1]; first compound 0.01 µM) of 0.197, a relative viability ([1]; first compound 0.03162 µM) of 0.208 and a relative viability ([1]; first compound 0.1 µM) of 0.214. The relative viability ([1]; first compound 0.3162 µM) was 0.172, the relative viability ([1]; first compound 1 µM) was 0.209 and the relative viability ([2]; first compound 0.01 µM) was 0.339. The relative viability ([2]; first compound 0.03162 µM) was 0.308, the relative viability ([2]; first compound 0.1 µM) was 0.307 and the relative viability ([2]; first compound 0.3162 µM) was 0.294. The relative viability ([2]; first compound 1 µM) was 0.262, the relative viability ([3]; first compound 0.01 µM) was 0.929 and the relative viability ([3]; first compound 0.03162 µM) was 1.25. For the same cell line, the relative viability ([3]; first compound 0.1 µM) was 0.988, the relative viability ([3]; first compound 0.3162 µM) was 0.988 and the relative viability ([3]; first compound 1 µM) was 0.928. The relative viability ([4]; first compound 0.01 µM) was 0.198, the relative viability ([4]; first compound 0.03162 µM) was 0.176 and the relative viability ([4]; first compound 0.1 µM) was 0.157. For the same cell line, the relative viability ([4]; first compound 0.3162 µM) was 0.162 and the relative viability ([4]; first compound 1 µM) was 0.124.
SK-MES-1 was tested, and the relative viability ([1]; first compound 0.01 µM) was 0.782, the relative viability ([1]; first compound 0.03162 µM) was 0.813 and the relative viability ([1]; first compound 0.1 µM) was 0.809. For the same cell line, the relative viability ([1]; first compound 0.3162 µM) was 0.788, the relative viability ([1]; first compound 1 µM) was 0.673 and the relative viability ([2]; first compound 0.01 µM) was 0.896. For the same cell line, the relative viability ([2]; first compound 0.03162 µM) was 0.923, the relative viability ([2]; first compound 0.1 µM) was 0.852 and the relative viability ([2]; first compound 0.3162 µM) was 0.836. For the same cell line, the relative viability ([2]; first compound 1 µM) was 0.47, the relative viability ([3]; first compound 0.01 µM) was 0.915 and the relative viability ([3]; first compound 0.03162 µM) was 0.926. For the same cell line, the relative viability ([3]; first compound 0.1 µM) was 0.843, the relative viability ([3]; first compound 0.3162 µM) was 0.882 and the relative viability ([3]; first compound 1 µM) was 0.712. For the same cell line, the relative viability ([4]; first compound 0.01 µM) was 0.236, the relative viability ([4]; first compound 0.03162 µM) was 0.262 and the relative viability ([4]; first compound 0.1 µM) was 0.132. For the same cell line, the relative viability ([4]; first compound 0.3162 µM) was 0.171 and the relative viability ([4]; first compound 1 µM) was 0.163.
SW 1573 showed a relative viability ([1]; first compound 0.01 µM) of 0.726, a relative viability ([1]; first compound 0.03162 µM) of 0.195 and a relative viability ([1]; first compound 0.1 µM) of 0.289. The relative viability ([1]; first compound 0.3162 µM) was 0.311, the relative viability ([1]; first compound 1 µM) was 0.189 and the relative viability ([2]; first compound 0.01 µM) was 0.166. It also gave a relative viability ([2]; first compound 0.03162 µM) of 0.198, a relative viability ([2]; first compound 0.1 µM) of 0.188 and a relative viability ([2]; first compound 0.3162 µM) of 0.201. It also gave a relative viability ([2]; first compound 1 µM) of 0.16, a relative viability ([3]; first compound 0.01 µM) of 0.73 and a relative viability ([3]; first compound 0.03162 µM) of 1.08. The relative viability ([3]; first compound 0.1 µM) was 0.628, the relative viability ([3]; first compound 0.3162 µM) was 0.922 and the relative viability ([3]; first compound 1 µM) was 0.778. It also gave a relative viability ([4]; first compound 0.01 µM) of 0.428, a relative viability ([4]; first compound 0.03162 µM) of 0.453 and a relative viability ([4]; first compound 0.1 µM) of 0.406. The relative viability ([4]; first compound 0.3162 µM) was 0.383 and the relative viability ([4]; first compound 1 µM) was 0.273.
With UMC-11 the relative viability ([1]; first compound 0.01 µM) was 0.928, the relative viability ([1]; first compound 0.03162 µM) was 0.998 and the relative viability ([1]; first compound 0.1 µM) was 0.97. The relative viability ([1]; first compound 0.3162 µM) was 1.11, the relative viability ([1]; first compound 1 µM) was 0.924 and the relative viability ([2]; first compound 0.01 µM) was 0.198. For the same cell line, the relative viability ([2]; first compound 0.03162 µM) was 0.184, the relative viability ([2]; first compound 0.1 µM) was 0.187 and the relative viability ([2]; first compound 0.3162 µM) was 0.181. For the same cell line, the relative viability ([2]; first compound 1 µM) was 0.206, the relative viability ([3]; first compound 0.01 µM) was 1 and the relative viability ([3]; first compound 0.03162 µM) was 1.06. The relative viability ([3]; first compound 0.1 µM) was 0.901, the relative viability ([3]; first compound 0.3162 µM) was 0.809 and the relative viability ([3]; first compound 1 µM) was 0.787. The relative viability ([4]; first compound 0.01 µM) was 0.449, the relative viability ([4]; first compound 0.03162 µM) was 0.531 and the relative viability ([4]; first compound 0.1 µM) was 0.41. The relative viability ([4]; first compound 0.3162 µM) was 0.426 and the relative viability ([4]; first compound 1 µM) was 0.379.
